Like-named read-outs stand apart in the source and are kept apart here.
B1: truncated form of the M2 subunit, lacking these 7 amino acids at the C-terminus (enzyme)
chain: MLSLRVPLAPITDPQQLQLSPLKGLSLVDKENTPPALSGTRVLASKTARRIFQEPTEPKTKAAAPGVEDEPLLRENPRRFVIFPIEYHDIWQMYKKAEASFWTAEEVDLSKDIQHWESLKPEERYFISHVLAFFAASDGIVNENLVERFSQEVQITEARCFYGFQIAMENIHSEMYSLLIDTYIKDPKEREFLFNAIETMPCVKKKADWALRWIGDKEATYGERVVAFAAVEGIFFSGSFASIFWLKKRGLMPGLTFSNELISRDEGLHCDFACLMFKHLVHKPSEERVREIIINAVRIEQEFLTEALPVKLIGMNCTLMKQYIEFVADRLMLELGFSKVFRVENPFDFMENISLEGKTNFFEKRVGEYQRMGVMSSPTENS
notes: also called truncated M2
B2: p53R2 (human ribonucleotide reductase small subunit p53R2) (protein)
chain: MGDPERPEAAGLDQDERSSSDTNESEIKSNEEPLLRKSSRRFVIFPIQYPDIWKMYKQAQASFWTAEEVDLSKDLPHWNKLKADEKYFISHILAFFAASDGIVNENLVERFSQEVQVPEARCFYGFQILIENVHSEMYSLLIDTYIRDPKKREFLFNAIETMPYVKKKADWALRWIADRKSTFGERVVAFAAVEGVFFSGSFAAIFWLKKRGLMPGLTFSNELISRDEGLHCDFACLMFQYLVNKPSEERVREIIVDAVKIEQEFLTEALPVGLIGMNCILMKQYIEFVADRLLVELGFSKVFQAENPFDFMENISLEGKTNFFEKRVSEYQRFAVMAETTDNVFTLDADF
B3: hRRM2 (human ribonucleotide reductase small subunit M2) (protein)
chain: MLSLRVPLAPITDPQQLQLSPLKGLSLVDKENTPPALSGTRVLASKTARRIFQEPTEPKTKAAAPGVEDEPLLRENPRRFVIFPIEYHDIWQMYKKAEASFWTAEEVDLSKDIQHWESLKPEERYFISHVLAFFAASDGIVNENLVERFSQEVQITEARCFYGFQIAMENIHSEMYSLLIDTYIKDPKEREFLFNAIETMPCVKKKADWALRWIGDKEATYGERVVAFAAVEGIFFSGSFASIFWLKKRGLMPGLTFSNELISRDEGLHCDFACLMFKHLVHKPSEERVREIIINAVRIEQEFLTEALPVKLIGMNCTLMKQYIEFVADRLMLELGFSKVFRVENPFDFMENISLEGKTNFFEKRVGEYQRMGVMSSPTENSFTLDADF

What was measured:
[1] = system: T1, RNR containing hRRM2 or p53R2; assay: In vitro RNR activity assay, both reconstituted RNRs compared (average, selective index, comparison in words); type: biochemical, human; conditions: average of M2/M1 and p53R2/M1, read-out: In vitro RR activity (IC50) Average
T1 construct: In vitro RR activity (IC50) Average; other: compound in 1% DMSO; average of M2/M1 and p53R2/M1; other: compound in 2.5% DMSO; other: compound in dH2O + FeCl3; other: compound in dH2O; Inhi; fused on or other part: 6xHis tag on each subunit
Description: (§1) To reconstitute an active RNR, three 6′His-tag human RNR subunit proteins (hRRM2, p53R2, and hRRM1) were prokaryotically expressed, purified using Ni-resin affinity chromatography, and stored in 50 mM Tris-HCl, pH 7.4, 100 mM KCl at −70° C. according to standard techniques. The purified proteins were subjected to SDS-PAGE analysis. […] To reconstitute RNR, 1 μM of hRRM2 or p53R2 protein was incubated with 0.5 μM hRRM1 protein in multiple-well plates. The reconstitute RNR was tested for RNR activity according to standard techniques.
(§2) Each compound of various concentration was mixed with the purified hRRM2 and hRRM1, or p53R2 and hRRM1 at room temperature for 30 minutes. An enzymatic reaction buffer was then added to the mixture to reach a final volume of 100 μl and incubated at 37° C. for 30 minutes. The reaction buffer contained […] [^3H] CDP, 50 mM HEPES pH 7.2,6 mM DTT, 4 mM MgOAC, 2 mM ATP, 0.05 mM CDP, 100 mM KCl, and 0.24 mM NADPH. […] FeCl3 could be added to the buffer as an iron source. After dephosphorylation, the supernatant of each reaction mixture was analyzed by an HPLC-connected radioactivity detector. IC50 values were calculated by the non-linear regression equations: f (x)=(a-d)/[1+(x/c)^b]+d.
(§3) The above-described four SB-HSCs were tested for their inhibitory potency and subunit-selectivity by the in vitro RNR assay in the same manner descried above. The dose-dependent inhibition curves were found.

[2] = biological target: T2, M2/M1 (hRRM2 and hRRM1 reconstituted RNR) (Homo sapiens, UniProt P31350); assay: In vitro RNR activity assay with reconstituted hRRM2/hRRM1 ([3H]CDP reduction); type: biochemical; conditions: read-out: In vitro RR activity (IC50 ± sd) M2/M1
T2 construct: 6xHis; made in house
T2 sequence (P31350 1-389): B3 chain
Description: as §1, §2

[3] = biological target: T3, p53R2/M1 (p53R2 and hRRM1 reconstituted RNR) (Homo sapiens, UniProt Q7LG56); assay: In vitro RNR activity assay with reconstituted p53R2/hRRM1 ([3H]CDP reduction); type: biochemical; conditions: read-out: In vitro RR activity (IC50 ± sd) p53R2/M1
T3 construct: 6xHis; made in house
T3 sequence (Q7LG56 1-351): B2 chain
Description: as §1, §2

[4] = Standard cell-based assay; conditions: read-out: Cell-based assay (IC50 ± sd)
[5] = system: RNR containing hRRM2 or p53R2; assay: In vitro RNR activity assay, both reconstituted RNRs compared (average, selective index, comparison in words); type: biochemical, human; conditions: for Selective index: M2/M1 versus p53R2/M1
Description: as §1, §2, §3

[6] = biological target: T4, hRRM1 (human ribonucleotide reductase large subunit M1) (human, UniProt P23921 1-792); assay: complex formation (method not described)
T4 construct: also called R1 subunit
T4 sequence: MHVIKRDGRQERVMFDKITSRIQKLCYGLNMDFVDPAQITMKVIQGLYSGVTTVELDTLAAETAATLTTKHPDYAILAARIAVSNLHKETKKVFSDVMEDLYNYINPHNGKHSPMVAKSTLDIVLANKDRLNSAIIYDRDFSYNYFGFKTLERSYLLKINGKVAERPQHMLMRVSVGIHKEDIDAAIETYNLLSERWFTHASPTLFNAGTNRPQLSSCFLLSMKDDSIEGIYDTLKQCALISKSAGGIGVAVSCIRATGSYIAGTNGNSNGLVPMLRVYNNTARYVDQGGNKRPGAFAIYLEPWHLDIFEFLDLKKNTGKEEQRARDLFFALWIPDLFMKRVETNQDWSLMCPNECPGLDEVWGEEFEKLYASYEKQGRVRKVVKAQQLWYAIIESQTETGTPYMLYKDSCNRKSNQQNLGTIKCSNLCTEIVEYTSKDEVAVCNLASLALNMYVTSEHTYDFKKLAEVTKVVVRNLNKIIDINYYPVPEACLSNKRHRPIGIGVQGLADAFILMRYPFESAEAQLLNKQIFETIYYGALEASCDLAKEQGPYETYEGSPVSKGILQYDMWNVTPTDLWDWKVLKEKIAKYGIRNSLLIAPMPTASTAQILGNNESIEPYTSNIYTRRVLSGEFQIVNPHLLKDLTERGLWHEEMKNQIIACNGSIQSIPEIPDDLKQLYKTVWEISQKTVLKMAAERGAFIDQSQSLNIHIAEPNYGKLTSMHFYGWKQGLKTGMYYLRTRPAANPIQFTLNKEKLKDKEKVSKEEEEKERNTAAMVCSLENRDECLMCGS

[7] = biological target: T5, hRRM1 (human ribonucleotide reductase large subunit M1)
T5 chain: T4 sequence

| Molecule | IC50 ([1]; compound in 2.5% DMSO) [µM] | IC50 ([2]; compound in 2.5% DMSO) [µM] | IC50 ([3]; compound in 2.5% DMSO) [µM] | IC50 [4] [µM] | Small subunit selectivity of RNR inhibition (in words) [5] | other results |
| --- | --- | --- | --- | --- | --- | --- |
| Cc1c2ccccc2c(C=NNC(=O)NO)c2ccccc12 [SB-HSC29] | > 250 | > 250 | > 250 | 4.4 | – | – |
| NNC(N)=O [SC, semicarbazide, reference compound] | – | – | – | > 2190 | – | IC50 ([1]; compound in dH2O): > 5000 µM; IC50 ([2]; compound in dH2O): > 5000 µM; IC50 ([3]; compound in dH2O): > 5000 µM |
| O=C(NO)NN=Cc1cc(Cl)cc(Cl)c1O [SB-HSC2] | 70.7 | 111 ± 6.64 | 30.6 ± 1.62 | 6.5 ± 0.6 | significantly more efficient in inactivating p53R2 | Selective index ([5]; compound in 2.5% DMSO): 3.62 |
| O=C(NO)NN=Cc1ccc(O)c(O)c1O [SB-HSC21] | – | – | – | 2.7 ± 0.6 | almost the same inhibitory activities on both small subunits | Selective index ([5]; compound in 1% DMSO): 0.85; IC50 ([1]; compound in 1% DMSO): 12.5 µM; IC50 ([2]; compound in 1% DMSO): 11.5 ± 0.63 µM; IC50 ([3]; compound in 1% DMSO): 13.6 ± 0.7 µM |
| O=C(NO)NN=Cc1ccc([N+](=O)[O-])s1 [SB-HSC24] | 31.7 | 52 ± 2.03 | 11.5 ± 0.6 | 10.6 ± 0.3 | significantly more efficient in inactivating p53R2 | Selective index ([5]; compound in 2.5% DMSO): 4.53 |
| C[S+](C)[O-] [DMSO] | – | – | – | – | inhibited p53R2-containing-RNR more potently than hRRM2-containing RNR | – |
| B1 | – | – | – | – | – | binding result [6]: no binding |
| B2 | – | – | – | – | – | RNR activity of reconstituted RNR [7]: It was found it possessed RNR activity |
| B3 | – | – | – | – | – | RNR activity of reconstituted RNR [7]: It was found it possessed RNR activity |

— patent publication US20050260637A1, “Drug screening” (priority 2004, published 2005)
